PMC10002828, “FRET assay for live-cell high-throughput screening of the cardiac SERCA pump yields multiple classes of small-molecule allosteric modulators” (Research Square, 2023)
Structures can show the parent of a compound that is named as a salt. Where two headings read alike, the source gives them in different places.

What was measured:
[1] = tested on: SERCA; details: cited from earlier work
[2] = biological target: T1, SERCA2a (Sus scrofa, UniProt P11607); test: NADH-linked enzyme-coupled Ca2+-ATPase assay in pig cardiac SR vesicles; type: biochemical; details: for functional category (Ca2+-ATPase and Ca2+-transport, VMAX and VMID): based on both Ca2+-ATPase and Ca2+-transport assays; for Ca2+-ATPase increase at VMID (ΔVMID): midpoint Ca2+; for Ca2+-ATPase increase at VMAX (ΔVMAX): saturating Ca2+
T1 construct: SERCA2a in native SR preparations; from tissue; host or cells: porcine left ventricular tissue (cardiac SR vesicles)
Method: (§1) Cardiac SR vesicles were isolated from fresh porcine left ventricular tissue using differential centrifugation of the homogenized tissue as previously described. The SR vesicles were flash-frozen and stored at −80°C until needed.
Functional assays were performed using porcine cardiac SR vesicles. An enzyme-coupled, NADH-linked ATPase assay was used to measure SERCA ATPase activity in 384-well microplates. Each well contained 50 mM MOPS (pH 7.0), 100 mM KCl, 1 mM EGTA, 0.2 mM NADH, 1 mM phosphoenol pyruvate, 10 IU/mL of pyruvate kinase, 10 IU/mL of lactate dehydrogenase, 7 μM of the calcium ionophore A23187 (Sigma), and CaCl2 was added to set free [Ca^2+] to three different concentrations. The Ca^2+-ATPase were measured at VMAX (saturating, pCa 5.4), VM!D (subsaturating, midpoint, pCa 6.2), and basal (non-activating, pCa 8.0) [Ca^2+]. 10 μg/mL of SR vesicle, calcium, compound (0.048 to 50 μM), and assay mix were incubated for 20 min at room temperature before measurement of functional assays with each of the 18 hit compounds, because a shorter incubation time than the FRET live-cell assays achieved optimal responses. The assay was started upon the addition of MgATP at a final concentration of 5 mM (total volume to 80 μL), and absorbance was read in a SpectraMax Plus microplate spectrophotometer from Molecular Devices (Sunnyvale, CA) at 340nm.
(§2) SERCA2a ATPase (or Ca-transport) activity at pCa 8.0 was subtracted from pCa 5.4 and pCa 6.2 values. The % effect ATPase (or Ca-transport transport) activity was normalized to the DMSO only (or 2CS in the absence of compound), and then were plotted against [Ca], and the curves were fitted using the Hill function, where V is the initial ATPase rate (or fluorescence rate), VMAX is the ATPase (or Ca^2+-transport) at saturating [Ca^2+], and EC50 or pKCa, or VM!D is the apparent Ca^2+ dissociation constant as described previously ATPase (or Ca^2+-transport) at (Midpoint Ca^2+)[44].

[3] = biological target: T1, SERCA2a; test: Fluo-4 oxalate-supported Ca2+-transport assay in pig cardiac SR vesicles; type: biochemical; details: for coupling ratio (CR), VMAX (Ca2+-transport) / VMAX (Ca2+-ATPase): at VMAX, control 0.66; for Ca2+-transport increase at VMID (Δ): midpoint Ca2+; for Ca2+-transport increase at VMID (Δ) / C10, Ca2+-transport at VMID: pCa 6.2; for Ca2+-transport change at VMAX (Δ, increase positive): saturating Ca2+
Method: as §1
Ca^2+-transport assays were performed with similar porcine SR samples as in the Ca^2+-ATPase assays described above. The compound effect on the Ca^2+-transport activity of SERCA2a was determined using an oxalate-supported assay in which the change in fluorescence in a Ca-sensitive dye, Fluor-4, was determined as previously described. A buffered solution containing 50 mM MOPS (pH 7.0), 100 mM KCl, 30 mg/mL sucrose, 1 mM EGTA, 10 mM potassium oxalate, 2 μM Fluo-4, 30 μg/mL porcine cardiac SR vesicles, CaCl2 calculated to reach the free [Ca^2+] (pCa 8.0, 6.2, and 5.4), and compound (0.048 to 50μM) was dispensed into 384-well black walled, transparent bottomed plates (Greiner Bio-One) containing the tested small molecule and incubated at 22°C for 20 minutes while covered and protected from light. To start the reaction, MgATP was added to a final concentration of 5 mM, and the decrease in 485-nm excited fluorescence of Fluo-4 was monitored at 520 nm for 15 min using a FLIPR Tetra (Molecular Devices, San Jose, CA).
as §2

[4] = biological target: T2, human two-color SERCA2a (2CS) biosensor (Homo sapiens, UniProt P16615); test: FLT/FRET concentration-response of two-color SERCA2a (2CS) biosensor in live HEK293 cells; type: cell-based
T2 construct: expressed in transfected cells
Method: FRET CRC assay plates (0.78–100 μM compound range) with at least ten different compound concentrations were made by adding the appropriate volume of compound or DMSO into black 384 well plates (Greiner Bio-One) using a Mosquito HV (SPTLabTech, United Kingdom). Subsequent ATPase and Ca^2+-transport CRC assay plates (0–50 μM compound range) with repurchased compounds were made in a similar manner using with the Echo 550 (Beckman Coulter) using either 384 well transparent plates (Greiner Bio-One) or black-walled plates with transparent bottoms (Greiner Bio-One), respectively.
On each day of screening, cells were harvested, washed three times with PBS, and centrifuged at 300g for 5min. Cells were filtered using a 70μm cell strainer and diluted to 1–2 × 10^6 cells/mL. Cell concentration and viability were assessed using the Cell countess (Invitrogen) and trypan blue assay. During assays, cells were constantly and gently stirred using a magnetic stir bar at room temperature, keeping the cells in suspension and evenly distributed to avoid clumping. Cells were dispensed at 5μL or 50μL per well into assay plates (dispensed into 40 assay plates, each containing 1536 wells) pre-plated with either compound or DMSO using a Multdrop Combi liquid dispenser (Thermo Fisher Scientific, Pittsburg, PA) and sealed until needed. […] The FRET HTS screen was performed over two days with a custom HTS fluorescence lifetime plate reader (FLT-PR) and spectral plate reader (SUPR) provided by Photonic Pharma LLC (Minneapolis, MN)[18]. […]
A detailed description of the high-throughput fluorescence lifetime plate reader (FLT-PR) and spectral unmixing plate reader (SUPR), manufactured by Fluorescence Innovations Inc and provided by Photonic Pharma, LLC was described previously[18],[21]. Briefly, for lifetime measurement with the FLT-PR, the observed donor-fluorescence waveform, F (t) was fit by a convolution of the measured instrument response function (IRF) and a single-exponential decay to obtain the lifetime (τ) of the donor fluorophore[57] in the absence (τD) and presence (τDA) of the acceptor as described in Eq. (1): 1 F(t)=Ae^(−t/τ) FRET efficiency (E) was determined as the fractional decrease of donor FLT in the absence and in the presence of acceptor as in Eq. (2): 2 E=1−τDA/τD E was determined in the presence and absence of compound and normalized relative to E of the DMSO control. For spectral detection with the SUPR, the observed fluorescence emission spectrum F(λ) was fit by least-squares minimization of a linear combination of component spectra for donor (D), acceptor (A), cellular autofluorescence (C) and water Raman (W) as described previously. […]

[5] = design: method as in PMID 21878191; details: human usage; cited from earlier work
[6] = tested on: SERCA; design: method as in PMID 32397211; details: assay not named; read-out: EC50 (affinity); cited from earlier work
[7] = 2CS biosensor, live HEK293 cells, CRC 0.78–100 μM compound, read-out: FRET EC50

T1 sequence (P11607 1-997 isoform P11607-2): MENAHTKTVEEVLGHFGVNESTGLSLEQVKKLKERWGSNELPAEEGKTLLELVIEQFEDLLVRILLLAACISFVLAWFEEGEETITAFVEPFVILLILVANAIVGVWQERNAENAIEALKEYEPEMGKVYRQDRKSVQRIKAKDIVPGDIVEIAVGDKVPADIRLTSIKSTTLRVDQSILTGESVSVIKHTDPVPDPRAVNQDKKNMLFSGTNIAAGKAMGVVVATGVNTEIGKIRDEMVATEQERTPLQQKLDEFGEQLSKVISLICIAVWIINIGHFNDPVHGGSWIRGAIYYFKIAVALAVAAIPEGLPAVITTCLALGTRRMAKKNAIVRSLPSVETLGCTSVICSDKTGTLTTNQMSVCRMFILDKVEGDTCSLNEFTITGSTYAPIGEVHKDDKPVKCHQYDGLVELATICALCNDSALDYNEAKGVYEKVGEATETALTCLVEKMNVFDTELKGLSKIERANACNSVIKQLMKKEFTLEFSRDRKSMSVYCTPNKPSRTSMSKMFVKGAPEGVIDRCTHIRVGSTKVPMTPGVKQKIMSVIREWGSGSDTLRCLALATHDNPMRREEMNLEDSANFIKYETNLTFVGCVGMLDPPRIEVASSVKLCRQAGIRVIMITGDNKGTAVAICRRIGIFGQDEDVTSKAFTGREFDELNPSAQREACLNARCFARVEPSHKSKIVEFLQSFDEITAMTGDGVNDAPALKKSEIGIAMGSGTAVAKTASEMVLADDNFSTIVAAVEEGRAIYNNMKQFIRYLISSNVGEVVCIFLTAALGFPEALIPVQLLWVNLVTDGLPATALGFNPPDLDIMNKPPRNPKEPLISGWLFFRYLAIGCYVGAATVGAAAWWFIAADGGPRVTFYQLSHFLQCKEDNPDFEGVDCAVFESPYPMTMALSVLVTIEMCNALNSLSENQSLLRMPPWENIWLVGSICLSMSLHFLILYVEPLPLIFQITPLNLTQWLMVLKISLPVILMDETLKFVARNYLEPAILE
T2 sequence (P16615 1-997 isoform P16615-2): as the sequence (P11607 1-997 isoform P11607-2) above, with K371R, K403N, P538S, M570L, N576H, E667D, S713A, T865S, V889I, L963V counted along it

## Cc1ccc2cccc(NC(=O)c3ccc(OC(C)C)cc3)c2n1 [CDN1163]
[1]
  effect on SERCA: stimulates Ca^2+ transport

## CCCCN(CC)c1nc(C)nc2c1c(C)cn2-c1c(C)cc(C)cc1C [CP-154526]
[1]
  effect on SERCA: increases the apparent Ca^2+ affinity of SERC2a

## O=C(c1ccc(-c2ccc(O)cc2)nc1)N1CCC(CCc2ccccc2)CC1 [Compound 6]
[2]
  functional category (Ca2+-ATPase and Ca2+-transport, VMAX and VMID): activates Ca^2+-ATPase with divergent effects on Ca^2+-transport
[2]; pCa 6.2
  Ca2+-ATPase increase at VMID (ΔVMID): 30%
  C10, Ca2+-ATPase at VMID: 8.7 µM
[2]; pCa 5.4
  C10 (compound concentration that changes function by 10%), Ca2+-ATPase at VMAX: 9.7 µM
[2]; pCa 5.4, read-out: EC50, Ca2+-ATPase at VMAX
  EC50: 11 µM
[2]; pCa 6.2, read-out: EC50, Ca2+-ATPase at VMID
  EC50: 11 µM
[3]
  coupling ratio (CR), VMAX (Ca2+-transport) / VMAX (Ca2+-ATPase): 0.48
  Ca2+-transport increase at VMID (Δ): 17%
  C10, Ca2+-transport at VMID: 4 µM
[3]; pCa 5.4
  C10, Ca2+-transport at VMAX: 15 µM
  Ca2+-transport inhibition at VMAX: 21%
[4]; 2CS biosensor, normalized FRET E, read-out: FRET half maximal effect (EC50), Figure 6 legend
  EC50: 7.1 ± 0.2 µM

## CCn1nc(C)c(CN2CCCC(Nc3ccc(C(C)C)cc3)C2)c1C (stereo not drawn) [Compound 7]
[2]
  functional category (Ca2+-ATPase and Ca2+-transport, VMAX and VMID): activates both Ca^2+-ATPase and Ca^2+-transport
[2]; pCa 6.2
  Ca2+-ATPase increase at VMID (ΔVMID): 7%
  C10, Ca2+-ATPase at VMID: 25 µM
[2]; pCa 5.4
  C10 (compound concentration that changes function by 10%), Ca2+-ATPase at VMAX: 25 µM
  Ca2+-ATPase increase at VMAX (ΔVMAX): 14%
[3]
  coupling ratio (CR), VMAX (Ca2+-transport) / VMAX (Ca2+-ATPase): 0.74
  Ca2+-transport increase at VMID (Δ): 19%
  C10, Ca2+-transport at VMID: 21 µM
[3]; pCa 5.4
  C10, Ca2+-transport at VMAX: 14 µM
  Ca2+-transport change at VMAX (Δ, increase positive): 24%
[4]; [7]
  EC50: 0.3 µM

## COc1ccc(C(=O)C2CCCN(Cc3nc(-c4ccc(F)cc4)cs3)C2)c(OC)c1 (stereo not drawn) [Compound 8]
[2]
  functional category (Ca2+-ATPase and Ca2+-transport, VMAX and VMID): activates both Ca^2+-ATPase and Ca^2+-transport
[2]; pCa 6.2
  Ca2+-ATPase increase at VMID (ΔVMID): 31%
  C10, Ca2+-ATPase at VMID: 7.8 µM
[2]; pCa 5.4
  C10, Ca2+-ATPase at VMAX: 4.3 µM
  Ca2+-ATPase increase at VMAX (ΔVMAX): 49%
[3]
  coupling ratio (CR), VMAX (Ca2+-transport) / VMAX (Ca2+-ATPase): 0.4
  Ca2+-transport increase at VMID (Δ): 7%
[3]; pCa 5.4
  C10, Ca2+-transport at VMAX: 25 µM
  Ca2+-transport change at VMAX (Δ, increase positive): 10%
[4]; [7]
  EC50: 4.9 µM

## OCC1(Cc2ccccc2F)CCCN(Cc2cc3c(cc2Cl)OCO3)C1 (stereo not drawn) [Compound 12]
[2]; pCa 5.4
  Ca2+-ATPase inhibition at VMAX: 93%
[2]; pCa 6.2
  Ca2+-ATPase inhibition at VMID: 90%
[3]
  Ca2+-transport inhibition: completely inhibited
[4]; assay not given, probably FRET EC50 of Table 1, read-out: EC50 (affinity), compared with thapsigargin
  EC50: 3.8 µM

## O=C(c1cc(O)c(O)c([N+](=O)[O-])c1)c1ccccc1F [Ro 41–0960]
[1]
  effect on SERCA: increases SERCA maximal activity in high Ca^2+

## C[C@]12CCC(=NOCCN)C[C@@H]1C(=O)C[C@@H]1[C@@H]2CC[C@]2(C)C(=O)CC[C@@H]12 [istaroxime, (E,Z)-3-((2-aminoethoxy)imino) androstane-6,17-dione hydrochloride)]
[1]
  effect on SERCA: stimulates SERCA activity
[5]
  clearance rate: high clearance rate
  gastrointestinal absorption: poor gastrointestinal absorption
  metabolic transformation: extensive metabolic transformation

## C/C=C(/C)C(=O)O[C@H]1C(C)=C2[C@H]([C@@H]1OC(=O)CCCCCCC)[C@@](C)(OC(C)=O)C[C@H](OC(=O)CCC)[C@@]1(O)[C@H]2OC(=O)[C@@]1(C)O [thapsigargin]
[6]
  EC50: ~0.0075 µM
